The source of these data is ChEMBL document CHEMBL1148190, “Xestokerols A, B, and C, New C 29 Steroids with a Cyclopropane Ring from the Okinawan Marine Sponge Xestospongia sp” (J Nat Prod, 1993).

Assay [1] relates to Staphylococcus aureus. Description: Antibacterial activity against Staphylococcus aureus at 260 ug/ml. In kind it is functional, organism-based.
The next assay concerns KB. Description: Cytotoxicity against human KB cells. The class given is functional, cell-based.
Assay [2] deals with Bacillus subtilis. As to the kind of experiment: Antibacterial activity against Bacillus subtilis at 260 ug/ml. The class given is functional, organism-based.
The test system of a further assay is L1210. As to the kind of experiment: Cytotoxicity against mouse L1210 cells. In kind it is functional, cell-based.
Assay [3] has as its system Micrococcus luteus. As to the kind of experiment: Antibacterial activity against Sarcina lutea at 260 ug/ml. In kind it is functional, organism-based.
In assay [4] the test system is Micrococcus luteus. Description: Antibacterial activity against Sarcina lutea. The class given is functional.
Assay [5] deals with Staphylococcus aureus. As to the kind of experiment: Antibacterial activity against Staphylococcus aureus. In kind it is functional.
The subject of assay [6] is Bacillus subtilis. As to the kind of experiment: Antibacterial activity against Bacillus subtilis. The class given is functional.

Molecules are shown by their SMILES. ≈ marks a conversion by molar mass, not a printed value. Calls of active or inactive are those of the source. No cut-off for these calls is given here.

As a reminder, the IC50 is the midpoint of a concentration-inhibition curve. A higher IC50 goes with lower potency. Turning to `CC(CCC(C)(O)[C@H]1CC[C@H]2[C@@H]3[C@H](O)C[C@H]4CC(=O)CC[C@]4(C)[C@H]3C[C@@H](O)[C@]12C)C1CC1C` (stereo partly drawn) [XESTOKEROL B], the result in the assay on Staphylococcus aureus [1], in the assay with Bacillus subtilis [2] and in the assay with Micrococcus luteus [3] was inactive. Further, the IC50 with KB worked out at 4.6 µg/mL (≈ 9.98 µM); with L1210, 2.2 µg/mL (≈ 4.78 µM).

The MIC is the least concentration at which growth counts as inhibited. Low readings indicate greater potency, high ones weaker potency. As to `C=C(C(=O)CC(C)C1CC1C)[C@H]1CC[C@H]2[C@@H]3CC[C@H]4CC(=O)CC[C@]4(C)[C@H]3C[C@@H](O)[C@]12C` (stereo partly drawn) [XESTOKEROL C], the IC50 with KB is above 10 µg/mL; in the assay on L1210, 0.78 µg/mL (≈ 1.77 µM). The compound further had an MIC against Micrococcus luteus [4] of 66 µg/mL (≈ 150 µM).

Turning to `CC1CC1C(C)CC(O)C(O)(CO)[C@H]1CC[C@H]2[C@@H]3CC[C@H]4CC(=O)CC[C@]4(C)[C@H]3C[C@@H](O)[C@]12C` (stereo partly drawn) [XESTOKEROL A], the half-maximal inhibitory concentration (IC50) stood at 4.4 µg/mL (≈ 9.23 µM) with KB and 2.1 µg/mL (≈ 4.41 µM) in the assay on L1210. The MIC in the assay with Micrococcus luteus [4], in the assay on Staphylococcus aureus [5] and against Bacillus subtilis [6] was 16 µg/mL (≈ 33.6 µM) in each case.
